According to the OligoGym collection:
Oligonucleotides are written 5' to 3', each unit as a sugar letter and its base; * is a phosphorothioate linkage, no mark a phosphodiester; rarer units and linkages stand in square brackets, end groups in braces. Plain capitals give the bases only. Oligonucleotides are given in HELM: sugar(base)linkage, 5' to 3'; d 2'-deoxyribose, r ribose, m 2'-O-methylribose, p phosphate. ss, as = sense and antisense strand; d = 2'-deoxy (DNA); r = 2'-OH (RNA)

target: UBE2T; assay: reporter assay of Huesken 2005; conditions: siRNA
Note: test concentration or dose not given here.

Substance	normalised inhibition (eCFP-eYFP dual reporter) [%]
sense rArArCrCrCrArArCrCrCrUrGrArUrGrArCrCrCdTdT / antisense rGrGrGrUrCrArUrCrArGrGrGrUrUrGrGrGrUrUdCdT	52.7
sense rArArGrArGrArUrGrCrUrUrGrArUrArArUrCrUdTdT / antisense rArGrArUrUrArUrCrArArGrCrArUrCrUrCrUrUdCdC	99.4
sense rArArGrGrArUrUrUrGrUrCrUrGrGrArUrGrUrUdTdT / antisense rArArCrArUrCrCrArGrArCrArArArUrCrCrUrUdCdC	79.9
sense rArArGrGrUrGrCrUrUrGrGrArGrArCrCrArUrCdTdT / antisense rGrArUrGrGrUrCrUrCrCrArArGrCrArCrCrUrUdTdT	60.5
sense rArArGrUrUrArUrCrArUrUrCrCrUrGrArGrArGdTdT / antisense rCrUrCrUrCrArGrGrArArUrGrArUrArArCrUrUdCdT	79.4
sense rArArUrGrCrCrArGrArCrArGrUrGrGrArCrArGdTdT / antisense rCrUrGrUrCrCrArCrUrGrUrCrUrGrGrCrArUrUdCdT	77.5
sense rArCrArCrArCrCrUrUrArUrGrArGrArArArGrGdTdT / antisense rCrCrUrUrUrCrUrCrArUrArArGrGrUrGrUrGrUdTdG	74.7
sense rArCrArUrArUrCrCrUrCrArGrArArUrUrUrArAdTdT / antisense rUrUrArArArUrUrCrUrGrArGrGrArUrArUrGrUdCdA	114
sense rArCrCrCrUrGrArUrGrArCrCrCrGrCrUrCrArUdTdT / antisense rArUrGrArGrCrGrGrGrUrCrArUrCrArGrGrGrUdTdG	101
sense rArCrCrUrCrCrUrCrArGrArUrCrCrGrArUrUrUdTdT / antisense rArArArUrCrGrGrArUrCrUrGrArGrGrArGrGrUdTdC	100
sense rArGrArArUrGrCrCrArGrArCrArGrUrGrGrArCdTdT / antisense rGrUrCrCrArCrUrGrUrCrUrGrGrCrArUrUrCrUdTdG	95
sense rArGrCrUrGrCrUrCrArUrGrUrCrArGrArArCrCdTdT / antisense rGrGrUrUrCrUrGrArCrArUrGrArGrCrArGrCrUdGdA	79.4
sense rArGrGrArArGrArGrArUrGrCrUrUrGrArUrArAdTdT / antisense rUrUrArUrCrArArGrCrArUrCrUrCrUrUrCrCrUdCdA	113
sense rArGrGrUrArCrCrCrArUrUrUrGrArArCrCrUrCdTdT / antisense rGrArGrGrUrUrCrArArArUrGrGrGrUrArCrCrUdCdT	63.1
sense rArGrGrUrGrCrUrUrGrGrArGrArCrCrArUrCrCdTdT / antisense rGrGrArUrGrGrUrCrUrCrCrArArGrCrArCrCrUdTdT	65.6
sense rArGrUrArGrGrCrArUrArGrArArArArGrArArAdTdT / antisense rUrUrUrCrUrUrUrUrCrUrArUrGrCrCrUrArCrUdAdG	102
sense rArUrCrUrArCrCrArGrArGrGrCrUrGrGrUrGrAdTdT / antisense rUrCrArCrCrArGrCrCrUrCrUrGrGrUrArGrArUdTdA	97
sense rArUrUrCrCrUrGrArGrArGrGrUrArCrCrCrArUdTdT / antisense rArUrGrGrGrUrArCrCrUrCrUrCrArGrGrArArUdGdA	114
sense rArUrUrGrCrCrArCrCrArArArArGrGrUrGrCrUdTdT / antisense rArGrCrArCrCrUrUrUrUrGrGrUrGrGrCrArArUdTdT	43.8

target: UBE2D3; assay: reporter assay of Huesken 2005; conditions: siRNA

Substance	normalised inhibition (eCFP-eYFP dual reporter) [%]
RNA1{r(U)p.r(G)p.r(C)p.r(U)p.r(A)p.r(U)p.r(G)p.r(U)p.r(G)p.r(A)p.r(U)p.r(C)p.r(C)p.r(A)p.r(A)p.r(A)p.r(C)p.r(C)p.r(C)p.d(T)p.d(T)}|RNA2{r(G)p.r(G)p.r(G)p.r(U)p.r(U)p.r(U)p.r(G)p.r(G)p.r(A)p.r(U)p.r(C)p.r(A)p.r(C)p.r(A)p.r(U)p.r(A)p.r(G)p.r(C)p.r(A)p.d(G)p.d(T)}$$$RNA1{StrandType:ss}|RNA2{StrandType:as}$	42.2
RNA1{r(U)p.r(G)p.r(C)p.r(U)p.r(U)p.r(U)p.r(A)p.r(A)p.r(C)p.r(A)p.r(A)p.r(U)p.r(U)p.r(U)p.r(C)p.r(U)p.r(A)p.r(A)p.r(A)p.d(T)p.d(T)}|RNA2{r(U)p.r(U)p.r(U)p.r(A)p.r(G)p.r(A)p.r(A)p.r(A)p.r(U)p.r(U)p.r(G)p.r(U)p.r(U)p.r(A)p.r(A)p.r(A)p.r(G)p.r(C)p.r(A)p.d(G)p.d(G)}$$$RNA1{StrandType:ss}|RNA2{StrandType:as}$	92
RNA1{r(U)p.r(G)p.r(G)p.r(C)p.r(A)p.r(G)p.r(C)p.r(A)p.r(U)p.r(U)p.r(U)p.r(G)p.r(U)p.r(C)p.r(U)p.r(C)p.r(G)p.r(A)p.r(U)p.d(T)p.d(T)}|RNA2{r(A)p.r(U)p.r(C)p.r(G)p.r(A)p.r(G)p.r(A)p.r(C)p.r(A)p.r(A)p.r(A)p.r(U)p.r(G)p.r(C)p.r(U)p.r(G)p.r(C)p.r(C)p.r(A)p.d(T)p.d(T)}$$$RNA1{StrandType:ss}|RNA2{StrandType:as}$	99.6
RNA1{r(U)p.r(G)p.r(G)p.r(G)p.r(A)p.r(C)p.r(C)p.r(U)p.r(A)p.r(A)p.r(U)p.r(G)p.r(A)p.r(C)p.r(A)p.r(G)p.r(C)p.r(C)p.r(C)p.d(T)p.d(T)}|RNA2{r(G)p.r(G)p.r(G)p.r(C)p.r(U)p.r(G)p.r(U)p.r(C)p.r(A)p.r(U)p.r(U)p.r(A)p.r(G)p.r(G)p.r(U)p.r(C)p.r(C)p.r(C)p.r(A)p.d(T)p.d(A)}$$$RNA1{StrandType:ss}|RNA2{StrandType:as}$	48.6
RNA1{r(U)p.r(G)p.r(G)p.r(U)p.r(C)p.r(G)p.r(C)p.r(C)p.r(U)p.r(G)p.r(C)p.r(U)p.r(U)p.r(U)p.r(A)p.r(A)p.r(C)p.r(A)p.r(A)p.d(T)p.d(T)}|RNA2{r(U)p.r(U)p.r(G)p.r(U)p.r(U)p.r(A)p.r(A)p.r(A)p.r(G)p.r(C)p.r(A)p.r(G)p.r(G)p.r(C)p.r(G)p.r(A)p.r(C)p.r(C)p.r(A)p.d(C)p.d(T)}$$$RNA1{StrandType:ss}|RNA2{StrandType:as}$	90.3
RNA1{r(U)p.r(U)p.r(A)p.r(U)p.r(C)p.r(C)p.r(A)p.r(U)p.r(U)p.r(U)p.r(G)p.r(U)p.r(U)p.r(C)p.r(A)p.r(C)p.r(U)p.r(G)p.r(C)p.d(T)p.d(T)}|RNA2{r(G)p.r(C)p.r(A)p.r(G)p.r(U)p.r(G)p.r(A)p.r(A)p.r(C)p.r(A)p.r(A)p.r(A)p.r(U)p.r(G)p.r(G)p.r(A)p.r(U)p.r(A)p.r(A)p.d(A)p.d(A)}$$$RNA1{StrandType:ss}|RNA2{StrandType:as}$	23.6
RNA1{r(U)p.r(U)p.r(C)p.r(A)p.r(A)p.r(A)p.r(C)p.r(C)p.r(A)p.r(C)p.r(C)p.r(U)p.r(A)p.r(A)p.r(G)p.r(G)p.r(U)p.r(U)p.r(G)p.d(T)p.d(T)}|RNA2{r(C)p.r(A)p.r(A)p.r(C)p.r(C)p.r(U)p.r(U)p.r(A)p.r(G)p.r(G)p.r(U)p.r(G)p.r(G)p.r(U)p.r(U)p.r(U)p.r(G)p.r(A)p.r(A)p.d(G)p.d(G)}$$$RNA1{StrandType:ss}|RNA2{StrandType:as}$	64.4
RNA1{r(U)p.r(U)p.r(C)p.r(A)p.r(U)p.r(U)p.r(U)p.r(U)p.r(C)p.r(C)p.r(U)p.r(A)p.r(C)p.r(A)p.r(G)p.r(A)p.r(C)p.r(U)p.r(A)p.d(T)p.d(T)}|RNA2{r(U)p.r(A)p.r(G)p.r(U)p.r(C)p.r(U)p.r(G)p.r(U)p.r(A)p.r(G)p.r(G)p.r(A)p.r(A)p.r(A)p.r(A)p.r(U)p.r(G)p.r(A)p.r(A)p.d(T)p.d(T)}$$$RNA1{StrandType:ss}|RNA2{StrandType:as}$	85
RNA1{r(U)p.r(U)p.r(C)p.r(U)p.r(G)p.r(C)p.r(A)p.r(G)p.r(G)p.r(U)p.r(C)p.r(C)p.r(A)p.r(G)p.r(U)p.r(U)p.r(G)p.r(G)p.r(G)p.d(T)p.d(T)}|RNA2{r(C)p.r(C)p.r(C)p.r(A)p.r(A)p.r(C)p.r(U)p.r(G)p.r(G)p.r(A)p.r(C)p.r(C)p.r(U)p.r(G)p.r(C)p.r(A)p.r(G)p.r(A)p.r(A)p.d(C)p.d(A)}$$$RNA1{StrandType:ss}|RNA2{StrandType:as}$	50
RNA1{r(U)p.r(U)p.r(G)p.r(C)p.r(A)p.r(U)p.r(U)p.r(U)p.r(A)p.r(C)p.r(A)p.r(A)p.r(C)p.r(A)p.r(A)p.r(G)p.r(A)p.r(A)p.r(U)p.d(T)p.d(T)}|RNA2{r(A)p.r(U)p.r(U)p.r(C)p.r(U)p.r(U)p.r(G)p.r(U)p.r(U)p.r(G)p.r(U)p.r(A)p.r(A)p.r(A)p.r(U)p.r(G)p.r(C)p.r(A)p.r(A)p.d(C)p.d(C)}$$$RNA1{StrandType:ss}|RNA2{StrandType:as}$	68.4
RNA1{r(U)p.r(U)p.r(U)p.r(A)p.r(C)p.r(A)p.r(A)p.r(C)p.r(A)p.r(A)p.r(G)p.r(A)p.r(A)p.r(U)p.r(U)p.r(U)p.r(A)p.r(U)p.r(C)p.d(T)p.d(T)}|RNA2{r(G)p.r(A)p.r(U)p.r(A)p.r(A)p.r(A)p.r(U)p.r(U)p.r(C)p.r(U)p.r(U)p.r(G)p.r(U)p.r(U)p.r(G)p.r(U)p.r(A)p.r(A)p.r(A)p.d(T)p.d(G)}$$$RNA1{StrandType:ss}|RNA2{StrandType:as}$	48.8
RNA1{r(U)p.r(U)p.r(U)p.r(C)p.r(A)p.r(U)p.r(U)p.r(G)p.r(G)p.r(C)p.r(A)p.r(A)p.r(G)p.r(C)p.r(C)p.r(A)p.r(C)p.r(A)p.r(A)p.d(T)p.d(T)}|RNA2{r(U)p.r(U)p.r(G)p.r(U)p.r(G)p.r(G)p.r(C)p.r(U)p.r(U)p.r(G)p.r(C)p.r(C)p.r(A)p.r(A)p.r(U)p.r(G)p.r(A)p.r(A)p.r(A)p.d(C)p.d(A)}$$$RNA1{StrandType:ss}|RNA2{StrandType:as}$	85.3
RNA1{r(U)p.r(U)p.r(U)p.r(C)p.r(U)p.r(A)p.r(A)p.r(A)p.r(G)p.r(U)p.r(U)p.r(C)p.r(U)p.r(U)p.r(U)p.r(U)p.r(A)p.r(U)p.r(C)p.d(T)p.d(T)}|RNA2{r(G)p.r(A)p.r(U)p.r(A)p.r(A)p.r(A)p.r(A)p.r(G)p.r(A)p.r(A)p.r(C)p.r(U)p.r(U)p.r(U)p.r(A)p.r(G)p.r(A)p.r(A)p.r(A)p.d(T)p.d(T)}$$$RNA1{StrandType:ss}|RNA2{StrandType:as}$	30.6
